# In PubChem BioAssay AID2060483 (Molecular Pharmacology Branch, DTP, NCI, 2025):
# Test system: K24384-001-R-PDC complex spheroids, viability
# Test: Anticancer human tumor K24384-001-R-PDC patient-derived pancreatic adenocarcinoma cell line growth inhibition [GQUAD]
# Settings: for IC50: curve of first compound; for viability, T/C: stronger effect = lower value
# How it was run: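 Tumor cells were grown as complex spheroids with HUVEC endothelial cells and mesenchymal stem cells as stroma. G-quadruplex stabilizers were combined with targeted agents over half-log dilutions from near the clinical Cmax, or from 10 microM.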
# [1] = second compound 0.0316 µM, first compound 0.0316 µM
# [2] = second compound 0.0316 µM, first compound 0.1 µM
# [3] = second compound 0.0316 µM, first compound 0.316 µM
# [4] = second compound 0.0316 µM, first compound 1 µM
# [5] = second compound 0.0316 µM, first compound 3.16 µM
# [6] = second compound 0.0316 µM, first compound 10 µM
# [7] = second compound 0.1 µM, first compound 0.0316 µM
# [8] = second compound 0.1 µM, first compound 0.1 µM
# [9] = second compound 0.1 µM, first compound 0.316 µM
# [10] = second compound 0.1 µM, first compound 1 µM
# [11] = second compound 0.1 µM, first compound 3.16 µM
# [12] = second compound 0.1 µM, first compound 10 µM
# [13] = second compound 0.316 µM, first compound 0.0316 µM
# [14] = second compound 0.316 µM, first compound 0.1 µM
# [15] = second compound 0.316 µM, first compound 0.316 µM
# [16] = second compound 0.316 µM, first compound 1 µM
# [17] = second compound 0.316 µM, first compound 3.16 µM
# [18] = second compound 0.316 µM, first compound 10 µM
# [19] = second compound 1 µM, first compound 0.0316 µM
# [20] = second compound 1 µM, first compound 0.1 µM
# [21] = second compound 1 µM, first compound 0.316 µM
# [22] = second compound 1 µM, first compound 1 µM
# [23] = second compound 1 µM, first compound 3.16 µM
# [24] = second compound 1 µM, first compound 10 µM
# [25] = second compound 3.16 µM, first compound 0.0316 µM
# [26] = second compound 3.16 µM, first compound 0.1 µM
# [27] = second compound 3.16 µM, first compound 0.316 µM
# [28] = second compound 3.16 µM, first compound 1 µM
# [29] = second compound 3.16 µM, first compound 3.16 µM
# [30] = second compound 3.16 µM, first compound 10 µM
# [31] = second compound 10 µM, first compound 0.0316 µM
# [32] = second compound 10 µM, first compound 0.1 µM
# [33] = second compound 10 µM, first compound 0.316 µM
# [34] = second compound 10 µM, first compound 1 µM
# [35] = second compound 10 µM, first compound 3.16 µM
# [36] = second compound 10 µM, first compound 10 µM
# 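Note: spheroids exposed to compounds for seven days.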
structure (smiles),measurement,setting,value
C=CCn1c(=O)c2cnc(Nc3ccc(N4CCN(C)CC4)cc3)nc2n1-c1cccc(C(C)(C)O)n1 + Cc1[nH]c2ccc(F)cc2c1-c1nc2c3cccnc3c3ncccc3c2[nH]1,IC50,second compound 0.0316 µM,436 nM
same,IC50,second compound 0.1 µM,285 nM
same,IC50,second compound 0.316 µM,420 nM
same,IC50,second compound 1 µM,241 nM
same,IC50,second compound 3.16 µM,192 nM
same,IC50,second compound 10 µM,159 nM
same,"viability, T/C",[1],94.8%
same,"viability, T/C",[2],77.8%
same,"viability, T/C",[3],63.1%
same,"viability, T/C",[4],19.3%
same,"viability, T/C",[5],14.9%
same,"viability, T/C",[6],16.6%
same,"viability, T/C",[7],98.7%
same,"viability, T/C",[8],95%
same,"viability, T/C",[9],45.5%
same,"viability, T/C",[10],19.7%
same,"viability, T/C",[11],16.8%
same,"viability, T/C",[12],18.8%
same,"viability, T/C",[13],89.6%
same,"viability, T/C",[14],84.5%
same,"viability, T/C",[15],60.6%
same,"viability, T/C",[16],17%
same,"viability, T/C",[17],18.8%
same,"viability, T/C",[18],15.2%
same,"viability, T/C",[19],79.5%
same,"viability, T/C",[20],71.9%
same,"viability, T/C",[21],43.6%
same,"viability, T/C",[22],17.2%
same,"viability, T/C",[23],18.4%
same,"viability, T/C",[24],16.6%
same,"viability, T/C",[25],73%
same,"viability, T/C",[26],63%
same,"viability, T/C",[27],40%
same,"viability, T/C",[28],13.6%
same,"viability, T/C",[29],21.1%
same,"viability, T/C",[30],19.1%
same,"viability, T/C",[31],79%
same,"viability, T/C",[32],53.2%
same,"viability, T/C",[33],46.2%
same,"viability, T/C",[34],16.3%
same,"viability, T/C",[35],14.5%
same,"viability, T/C",[36],17.1%
CC(C)(O)C1CCC(Nc2ccc3ncc(-c4cccc(C(F)(F)F)c4)n3n2)CC1 (stereo unspecified) + Cc1[nH]c2ccc(F)cc2c1-c1nc2c3cccnc3c3ncccc3c2[nH]1,IC50,second compound 0.0316 µM,1630 nM
same,IC50,second compound 0.1 µM,2030 nM
same,IC50,second compound 0.316 µM,1930 nM
same,IC50,second compound 1 µM,1710 nM
same,IC50,second compound 3.16 µM,447 nM
same,IC50,second compound 10 µM,548 nM
same,"viability, T/C",[1],95.6%
same,"viability, T/C",[2],104%
same,"viability, T/C",[3],111%
same,"viability, T/C",[4],59.3%
same,"viability, T/C",[5],28.3%
same,"viability, T/C",[6],46.5%
same,"viability, T/C",[7],75.3%
same,"viability, T/C",[8],105%
same,"viability, T/C",[9],90.4%
same,"viability, T/C",[10],68.1%
same,"viability, T/C",[11],39.8%
same,"viability, T/C",[12],33.2%
same,"viability, T/C",[13],103%
same,"viability, T/C",[14],97.9%
same,"viability, T/C",[15],108%
same,"viability, T/C",[16],73.4%
same,"viability, T/C",[17],28.5%
same,"viability, T/C",[18],36.6%
same,"viability, T/C",[19],76.7%
same,"viability, T/C",[20],99%
same,"viability, T/C",[21],106%
same,"viability, T/C",[22],68.8%
same,"viability, T/C",[23],26.2%
same,"viability, T/C",[24],30.9%
same,"viability, T/C",[25],64.6%
same,"viability, T/C",[26],70.4%
same,"viability, T/C",[27],56.2%
same,"viability, T/C",[28],32.8%
same,"viability, T/C",[29],15.4%
same,"viability, T/C",[30],13.8%
same,"viability, T/C",[31],70.1%
same,"viability, T/C",[32],85.7%
same,"viability, T/C",[33],57.3%
same,"viability, T/C",[34],39.4%
same,"viability, T/C",[35],12.7%
same,"viability, T/C",[36],14%
CCCS(=O)(=O)Nc1ccc(F)c(C(=O)c2c[nH]c3ncc(-c4ccc(Cl)cc4)cc23)c1F + Cc1[nH]c2ccc(F)cc2c1-c1nc2c3cccnc3c3ncccc3c2[nH]1,IC50,second compound 0.0316 µM,9150 nM
same,IC50,second compound 0.1 µM,8660 nM
same,IC50,second compound 0.316 µM,8260 nM
same,IC50,second compound 1 µM,7750 nM
same,IC50,second compound 3.16 µM,5030 nM
same,IC50,second compound 10 µM,5990 nM
same,"viability, T/C",[1],86.4%
same,"viability, T/C",[2],137%
same,"viability, T/C",[3],107%
same,"viability, T/C",[4],117%
same,"viability, T/C",[5],130%
same,"viability, T/C",[6],44.5%
same,"viability, T/C",[7],87.7%
same,"viability, T/C",[8],105%
same,"viability, T/C",[9],117%
same,"viability, T/C",[10],128%
same,"viability, T/C",[11],122%
same,"viability, T/C",[12],41%
same,"viability, T/C",[13],92.1%
same,"viability, T/C",[14],102%
same,"viability, T/C",[15],140%
same,"viability, T/C",[16],137%
same,"viability, T/C",[17],125%
same,"viability, T/C",[18],36.3%
same,"viability, T/C",[19],112%
same,"viability, T/C",[20],109%
same,"viability, T/C",[21],108%
same,"viability, T/C",[22],126%
same,"viability, T/C",[23],128%
same,"viability, T/C",[24],31%
same,"viability, T/C",[25],77%
same,"viability, T/C",[26],111%
same,"viability, T/C",[27],76.7%
same,"viability, T/C",[28],92.2%
same,"viability, T/C",[29],75.9%
same,"viability, T/C",[30],11.3%
same,"viability, T/C",[31],84.6%
same,"viability, T/C",[32],80.8%
same,"viability, T/C",[33],85.2%
same,"viability, T/C",[34],117%
same,"viability, T/C",[35],109%
same,"viability, T/C",[36],13.8%
